Assay results as given in patent publication US20090012119A1, “FLUOROALKYLPYRROLIDINE DERIVATIVE” (DAIICHI SANKYO COMPANY LIMITED, priority 2005, published 2009).
In brackets after ≈: the same amount, converted by molar mass.

Key:
[1] = system: E. coli, NIHJ; assay: Antibacterial activity (MIC), standard method of Japanese Society of Chemotherapy; format: cell-based; settings: Escherichia coli
Description: (§1) MIC value is also shown for levofloxacin (LVFX), ciprofloxacin (CPFX), and Comparative Compound (compound of Example 1 in the Patent Document 1) for comparison with the MIC value of the compound of the present invention.

[2] = system: Pr. mirabilis, IFO-3849; assay: as above; format: cell-based; settings: Proteus mirabilis, IFO3849
Description: as §1

[3] = system: Pr. vulgaris, 08601; assay: as above; format: cell-based; settings: Proteus vulgaris
Description: as §1

[4] = system: Ps. aeruginosa, 32104; assay: as above; format: cell-based; settings: Pseudomonas aeruginosa
Description: as §1

[5] = system: Ps. aeruginosa, 32121; assay: as above; format: cell-based; settings: Pseudomonas aeruginosa
Description: as §1

[6] = system: S. aureus, 209P; assay: as above; format: cell-based; settings: Staphylococcus aureus
Description: as §1

[7] = system: S. aureus, 870307; assay: as above; format: cell-based; settings: 870307: levofloxacin-resistant methicillin-resistant Staphylococcus aureus
Description: as §1

[8] = system: S. epidermidis, 56500; assay: as above; format: cell-based; settings: Staphylococcus epidermidis
Description: as §1

[9] = system: S. flexneri, 2A 5503; assay: as above; format: cell-based; settings: Shigella flexneri, 2A5503
Description: as §1

[10] = system: S. maltophilia, IID-1275; assay: as above; format: cell-based; settings: Stenotrophomonas maltophilia, IID1275
Description: as §1

[11] = system: S. pneumoniae, J24; assay: as above; format: cell-based; settings: Streptococcus pneumoniae, J24: penicillin resistant pneumococcus (moderate resistance)
Description: as §1

[12] = system: Ser. marcescens, 10100; assay: as above; format: cell-based; settings: Serratia marcescens
Description: as §1

[13] = system: Str. faecalis, ATCC-19433; assay: as above; format: cell-based; settings: Enterococcus faecalis, ATCC19433
Description: as §1

[14] = system: Str. pyogenes, G-36; assay: as above; format: cell-based; settings: Streptococcus pyogenes, G36
Description: as §1

[15] = system: 6 week old male Slc:ddY mice; assay: Single dose toxicity test, intravenous injection; format: in vivo
Procedure: The compounds of the present invention were evaluated for their toxicity in a single dose toxicity test by administering the compounds to 6 week old male Slc:ddY mice. The compound was diluted with 0.1 mol/l NaOH/physiological saline, and filtered through Millex GS filter (0.22 μm) for sterilization. The compound was administered at a rate of 10 ml/kg and 0.2 ml/min in a single dose by intravenous injection. The compound of Example 1 in the Patent Document 1 was used for the Comparative Compound as in the case of Test Example 1.

| SMILES | MIC [1] | MIC [2] | MIC [3] | MIC [4] | MIC [5] | MIC [6] | MIC [7] | MIC [8] | MIC [9] | MIC [10] | MIC [11] | MIC [12] | MIC [13] | MIC [14] | Number of dead mice/Total ([15]; Dose 100 mg/kg) | Number of dead mice/Total ([15]; Dose 150 mg/kg) | melting point |
| --- | --- | --- | --- | --- | --- | --- | --- | --- | --- | --- | --- | --- | --- | --- | --- | --- | --- |
| O=C(O)c1cn(C2CC2)c2cc(N3CCNCC3)c(F)cc2c1=O [CPFX, ciprofloxacin, reference compound] | ≤ 0.003 mg/L | 0.012 mg/L (≈ 0.0362 µM) | ≤ 0.003 mg/L | 0.05 mg/L (≈ 0.151 µM) | 0.025 mg/L (≈ 0.0754 µM) | 0.1 mg/L (≈ 0.302 µM) | > 6.25 mg/L | 0.2 mg/L (≈ 0.604 µM) | 0.006 mg/L (≈ 0.0181 µM) | 0.78 mg/L (≈ 2.35 µM) | 0.1 mg/L (≈ 0.302 µM) | 0.025 mg/L (≈ 0.0754 µM) | 0.78 mg/L (≈ 2.35 µM) | 1.56 mg/L (≈ 4.71 µM) |  |  |  |
| COc1c(N2C[C@H](CF)[C@H](N)C2)c(F)cc2c(=O)c(C(=O)O)cn(C3C[C@@H]3F)c12 (stereo partly shown) [Comparative Compound, reference compound] | ≤ 0.003 mg/L | 0.025 mg/L (≈ 0.0608 µM) | 0.012 mg/L (≈ 0.0292 µM) | 0.2 mg/L (≈ 0.486 µM) | 0.05 mg/L (≈ 0.122 µM) | 0.012 mg/L (≈ 0.0292 µM) | 0.2 mg/L (≈ 0.486 µM) | 0.05 mg/L (≈ 0.122 µM) | 0.006 mg/L (≈ 0.0146 µM) | 0.2 mg/L (≈ 0.486 µM) | 0.025 mg/L (≈ 0.0608 µM) | 0.05 mg/L (≈ 0.122 µM) | 0.1 mg/L (≈ 0.243 µM) | 0.1 mg/L (≈ 0.243 µM) | 1/5 | 2/3 |  |
| Cc1c(N2C[C@H](CF)[C@H](N)C2)c(F)cc2c(=O)c(C(=O)O)cn(C3CC3)c12 [Compound No. 1, 7-[(3S,4S)-3-amino-4-fluoromethyl-1-pyrrolidinyl]-1-cyclopropyl-6-fluoro-1,4-dihydro-8-methyl-4-oxoquinoline-3-carboxylic acid] | ≤ 0.003 mg/L | 0.012 mg/L (≈ 0.0318 µM) | ≤ 0.003 mg/L | 0.05 mg/L (≈ 0.132 µM) | 0.025 mg/L (≈ 0.0662 µM) | 0.012 mg/L (≈ 0.0318 µM) | 0.2 mg/L (≈ 0.53 µM) | 0.025 mg/L (≈ 0.0662 µM) | ≤ 0.003 mg/L | 0.1 mg/L (≈ 0.265 µM) | 0.025 mg/L (≈ 0.0662 µM) | 0.025 mg/L (≈ 0.0662 µM) | 0.05 mg/L (≈ 0.132 µM) | 0.1 mg/L (≈ 0.265 µM) |  |  | 160 to 165 °C |
| Cc1c(N2C[C@H](CF)[C@H](N)C2)ccc2c(=O)c(C(=O)O)cn(C3CC3)c12 [Compound No. 2, 7-[(3S,4S)-3-amino-4-fluoromethyl-1-pyrrolidinyl]-1-cyclopropyl-1,4-dihydro-8-methyl-4-oxoquinoline-3-carboxylic acid] | ≤ 0.003 mg/L | 0.05 mg/L (≈ 0.139 µM) | 0.006 mg/L (≈ 0.0167 µM) | 0.1 mg/L (≈ 0.278 µM) | 0.025 mg/L (≈ 0.0696 µM) | 0.025 mg/L (≈ 0.0696 µM) | 0.78 mg/L (≈ 2.17 µM) | 0.1 mg/L (≈ 0.278 µM) | 0.006 mg/L (≈ 0.0167 µM) | 0.2 mg/L (≈ 0.556 µM) | 0.1 mg/L (≈ 0.278 µM) | 0.05 mg/L (≈ 0.139 µM) | 0.2 mg/L (≈ 0.556 µM) | 0.2 mg/L (≈ 0.556 µM) |  |  | 203 to 205 °C |
| Cc1c(N2C[C@H](CF)[C@H](N)C2)c(F)cc2c(=O)c(C(=O)O)cn([C@@H]3C[C@@H]3F)c12 [Compound No. 3, 7-[(3S,4S)-3-amino-4-fluoromethyl-1-pyrrolidinyl]-6-fluoro-1-[(2S,1R)-2-fluorocyclopropyl]-1,4-dihydro-8-methyl-4-oxoquinoline-3-carboxylic acid] | 0.006 mg/L (≈ 0.0152 µM) | 0.006 mg/L (≈ 0.0152 µM) | ≤ 0.003 mg/L | 0.05 mg/L (≈ 0.126 µM) | 0.025 mg/L (≈ 0.0632 µM) | 0.006 mg/L (≈ 0.0152 µM) | 0.39 mg/L (≈ 0.986 µM) | 0.025 mg/L (≈ 0.0632 µM) | ≤ 0.003 mg/L | 0.1 mg/L (≈ 0.253 µM) | 0.025 mg/L (≈ 0.0632 µM) | 0.025 mg/L (≈ 0.0632 µM) | 0.1 mg/L (≈ 0.253 µM) | 0.05 mg/L (≈ 0.126 µM) | 0/5 | 0/3♭ |  |
| CN[C@@H]1CN(c2c(F)cc3c(=O)c(C(=O)O)cn([C@@H]4C[C@@H]4F)c3c2C)C[C@@H]1CF [Compound No. 4, 7-[(3S,4S)-3-fluoromethyl-4-methylaminopyrrolidine-1-yl]-6-fluoro-1-[(2S,1R)-2-fluorocyclopropyl]-1,4-dihydro-8-methyl-4-oxoquinoline-3-carboxylic acid] | ≤ 0.003 mg/L | 0.025 mg/L (≈ 0.0611 µM) | 0.006 mg/L (≈ 0.0147 µM) | 0.1 mg/L (≈ 0.244 µM) | 0.05 mg/L (≈ 0.122 µM) | 0.012 mg/L (≈ 0.0293 µM) | 0.39 mg/L (≈ 0.953 µM) | 0.05 mg/L (≈ 0.122 µM) | 0.006 mg/L (≈ 0.0147 µM) | 0.1 mg/L (≈ 0.244 µM) | 0.05 mg/L (≈ 0.122 µM) | 0.05 mg/L (≈ 0.122 µM) | 0.1 mg/L (≈ 0.244 µM) | 0.1 mg/L (≈ 0.244 µM) | 0/5 | 1/2 |  |
| CN[C@@H]1CN(c2c(F)cc3c(=O)c(C(=O)O)cn(C4CC4)c3c2C)C[C@@H]1CF [Compound No. 5, 1-cyclopropyl-6-fluoro-7-[(3S,4S)-3-fluoromethyl-4-methylaminopyrrolidine-1-yl]-8-methyl-1,4-dihydro-4-oxoquinoline-3-carboxylic acid] | ≤ 0.003 mg/L | 0.025 mg/L (≈ 0.0639 µM) | 0.006 mg/L (≈ 0.0153 µM) | 0.2 mg/L (≈ 0.511 µM) | 0.05 mg/L (≈ 0.128 µM) | 0.012 mg/L (≈ 0.0307 µM) | 0.39 mg/L (≈ 0.996 µM) | 0.05 mg/L (≈ 0.128 µM) | ≤ 0.003 mg/L | 0.05 mg/L (≈ 0.128 µM) | 0.05 mg/L (≈ 0.128 µM) | 0.05 mg/L (≈ 0.128 µM) | 0.1 mg/L (≈ 0.255 µM) | 0.1 mg/L (≈ 0.255 µM) |  |  | 156 to 158 °C |
| Cc1c(N2C[C@@H](N)[C@@H](C(F)F)C2)c(F)cc2c(=O)c(C(=O)O)cn([C@@H]3C[C@@H]3F)c12 [Compound No. 6, 7-[(3S,4S)-3-amino-4-difluoromethylpyrrolidine-1-yl]-6-fluoro-1-[(1R,2S)-2-fluorocyclopropyl]-8-methyl-1,4-dihydro-4-oxoquinoline-3-carboxylic acid] | ≤ 0.003 mg/L | 0.012 mg/L (≈ 0.029 µM) | 0.006 mg/L (≈ 0.0145 µM) | 0.2 mg/L (≈ 0.484 µM) | 0.05 mg/L (≈ 0.121 µM) | 0.012 mg/L (≈ 0.029 µM) | 0.2 mg/L (≈ 0.484 µM) | 0.025 mg/L (≈ 0.0605 µM) | ≤ 0.003 mg/L | 0.05 mg/L (≈ 0.121 µM) | 0.05 mg/L (≈ 0.121 µM) | 0.05 mg/L (≈ 0.121 µM) | 0.1 mg/L (≈ 0.242 µM) | 0.05 mg/L (≈ 0.121 µM) |  |  | 214 to 216 °C |
| C[C@H]1COc2c(N3CCN(C)CC3)c(F)cc3c(=O)c(C(=O)O)cn1c23 [LVFX, levofloxacin, reference compound] | 0.012 mg/L (≈ 0.0332 µM) | 0.05 mg/L (≈ 0.138 µM) | 0.012 mg/L (≈ 0.0332 µM) | 0.2 mg/L (≈ 0.553 µM) | 0.1 mg/L (≈ 0.277 µM) | 0.2 mg/L (≈ 0.553 µM) | > 6.25 mg/L | 0.39 mg/L (≈ 1.08 µM) | 0.025 mg/L (≈ 0.0692 µM) | 0.39 mg/L (≈ 1.08 µM) | 0.78 mg/L (≈ 2.16 µM) | 0.1 mg/L (≈ 0.277 µM) | 0.78 mg/L (≈ 2.16 µM) | 0.78 mg/L (≈ 2.16 µM) |  |  |  |
